According to patent US11578068B2, “Oxadiazole derivatives as Rho-Kinase Inhibitors” (Chiesi Farmaceutici S.p.A., priority 2017, dated 2023):

Experiments:
ROCK1 = ROCK1 (Homo sapiens, UniProt Q13464); experiment: In vitro Rho kinase inhibitory activity assay (ADP-Glo), Rho kinase 1; type: biochemical; conditions: Ki by Cheng-Prusoff from IC50; 10 μM ATP, 25° C., Myelin Basic Protein substrate; range of activity
Experimental: (§1) The effectiveness of compounds of the invention to inhibit Rho kinase activity can be determined in a 10 μl assay containing 40 mM Tris pH7.5, 20 mM MgCl2 0.1 mg/ml BSA, 50 μM DTT and 2.5 μM peptide substrate (Myelin Basic Protein) using an ADP-Glo kit (Promega). Compounds were dissolved in DMSO such that the final concentration of DMSO was 1% in the assay. All reactions/incubations are performed at 25° C. Compound (2 ul) and either Rho kinase 1 or 2 (4 μl) were mixed and incubated for 30 mins. Reactions were initiated by addition of ATP (4 μl) such that the final concentration of ATP in the assay was 10 μM. After a 1 hour incubation 10 μl of ADP-Glo Reagent was added and after a further 45 minute incubation 20 ul of Kinase Detection Buffer was added and the mixture incubated for a further 30 minutes. The luminescent signal was measured on a luminometer. […] Compounds were tested in dose-response format and the inhibition of kinase activity was calculated at each concentration of compound. To determine the IC50 (concentration of compound required to inhibit 50% of the enzyme activity) data were fit to a plot of % inhibition vs Log 10 compound concentration using a sigmoidal fit with a variable slope and fixing the maximum to 100% and the minimum to 0%. To determine the Ki values the Cheng-Prusoff equation was utilized (Ki=IC50/(1+[S]/Km)

ROCK2 = ROCK2 (Homo sapiens, UniProt O75116); experiment: In vitro Rho kinase inhibitory activity assay (ADP-Glo), Rho kinase 2; type: biochemical; conditions: Ki by Cheng-Prusoff from IC50; 10 μM ATP, 25° C., Myelin Basic Protein substrate; range of activity
Experimental: as §1

Sequence of ROCK1 (Q13464 whole entry): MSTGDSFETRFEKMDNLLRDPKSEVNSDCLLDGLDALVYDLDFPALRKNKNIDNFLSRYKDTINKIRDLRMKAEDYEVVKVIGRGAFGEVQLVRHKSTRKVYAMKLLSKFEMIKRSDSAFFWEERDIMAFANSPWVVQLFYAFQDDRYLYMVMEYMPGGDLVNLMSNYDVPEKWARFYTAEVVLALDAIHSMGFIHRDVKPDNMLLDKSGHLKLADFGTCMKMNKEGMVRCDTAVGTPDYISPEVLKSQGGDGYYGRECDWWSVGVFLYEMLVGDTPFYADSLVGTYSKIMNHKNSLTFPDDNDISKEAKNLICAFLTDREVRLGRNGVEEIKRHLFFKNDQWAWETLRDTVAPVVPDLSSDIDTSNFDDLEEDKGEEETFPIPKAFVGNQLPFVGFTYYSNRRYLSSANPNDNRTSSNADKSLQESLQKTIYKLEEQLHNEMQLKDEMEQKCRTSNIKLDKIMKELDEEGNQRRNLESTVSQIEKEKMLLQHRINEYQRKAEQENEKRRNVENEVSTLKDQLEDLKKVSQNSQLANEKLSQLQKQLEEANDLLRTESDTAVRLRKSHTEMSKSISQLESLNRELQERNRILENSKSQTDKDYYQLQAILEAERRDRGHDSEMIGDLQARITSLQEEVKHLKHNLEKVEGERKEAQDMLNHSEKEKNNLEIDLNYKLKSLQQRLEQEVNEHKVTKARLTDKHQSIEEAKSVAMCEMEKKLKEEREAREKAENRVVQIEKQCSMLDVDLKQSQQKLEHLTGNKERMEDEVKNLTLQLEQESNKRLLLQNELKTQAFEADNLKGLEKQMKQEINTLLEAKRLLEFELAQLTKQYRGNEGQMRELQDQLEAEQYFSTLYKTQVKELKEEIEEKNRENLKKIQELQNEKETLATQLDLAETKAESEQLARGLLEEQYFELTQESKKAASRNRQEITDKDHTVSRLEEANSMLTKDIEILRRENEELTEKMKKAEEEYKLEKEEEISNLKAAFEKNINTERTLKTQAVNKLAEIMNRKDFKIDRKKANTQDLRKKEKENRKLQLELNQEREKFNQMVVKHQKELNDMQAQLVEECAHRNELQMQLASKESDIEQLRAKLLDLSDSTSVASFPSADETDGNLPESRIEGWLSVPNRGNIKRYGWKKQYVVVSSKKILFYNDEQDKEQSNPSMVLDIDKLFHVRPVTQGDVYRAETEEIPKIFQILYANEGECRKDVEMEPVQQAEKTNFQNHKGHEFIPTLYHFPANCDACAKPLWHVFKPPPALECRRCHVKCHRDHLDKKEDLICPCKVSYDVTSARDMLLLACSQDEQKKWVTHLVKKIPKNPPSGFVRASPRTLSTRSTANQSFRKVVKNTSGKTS
Sequence of ROCK2 (O75116 whole entry): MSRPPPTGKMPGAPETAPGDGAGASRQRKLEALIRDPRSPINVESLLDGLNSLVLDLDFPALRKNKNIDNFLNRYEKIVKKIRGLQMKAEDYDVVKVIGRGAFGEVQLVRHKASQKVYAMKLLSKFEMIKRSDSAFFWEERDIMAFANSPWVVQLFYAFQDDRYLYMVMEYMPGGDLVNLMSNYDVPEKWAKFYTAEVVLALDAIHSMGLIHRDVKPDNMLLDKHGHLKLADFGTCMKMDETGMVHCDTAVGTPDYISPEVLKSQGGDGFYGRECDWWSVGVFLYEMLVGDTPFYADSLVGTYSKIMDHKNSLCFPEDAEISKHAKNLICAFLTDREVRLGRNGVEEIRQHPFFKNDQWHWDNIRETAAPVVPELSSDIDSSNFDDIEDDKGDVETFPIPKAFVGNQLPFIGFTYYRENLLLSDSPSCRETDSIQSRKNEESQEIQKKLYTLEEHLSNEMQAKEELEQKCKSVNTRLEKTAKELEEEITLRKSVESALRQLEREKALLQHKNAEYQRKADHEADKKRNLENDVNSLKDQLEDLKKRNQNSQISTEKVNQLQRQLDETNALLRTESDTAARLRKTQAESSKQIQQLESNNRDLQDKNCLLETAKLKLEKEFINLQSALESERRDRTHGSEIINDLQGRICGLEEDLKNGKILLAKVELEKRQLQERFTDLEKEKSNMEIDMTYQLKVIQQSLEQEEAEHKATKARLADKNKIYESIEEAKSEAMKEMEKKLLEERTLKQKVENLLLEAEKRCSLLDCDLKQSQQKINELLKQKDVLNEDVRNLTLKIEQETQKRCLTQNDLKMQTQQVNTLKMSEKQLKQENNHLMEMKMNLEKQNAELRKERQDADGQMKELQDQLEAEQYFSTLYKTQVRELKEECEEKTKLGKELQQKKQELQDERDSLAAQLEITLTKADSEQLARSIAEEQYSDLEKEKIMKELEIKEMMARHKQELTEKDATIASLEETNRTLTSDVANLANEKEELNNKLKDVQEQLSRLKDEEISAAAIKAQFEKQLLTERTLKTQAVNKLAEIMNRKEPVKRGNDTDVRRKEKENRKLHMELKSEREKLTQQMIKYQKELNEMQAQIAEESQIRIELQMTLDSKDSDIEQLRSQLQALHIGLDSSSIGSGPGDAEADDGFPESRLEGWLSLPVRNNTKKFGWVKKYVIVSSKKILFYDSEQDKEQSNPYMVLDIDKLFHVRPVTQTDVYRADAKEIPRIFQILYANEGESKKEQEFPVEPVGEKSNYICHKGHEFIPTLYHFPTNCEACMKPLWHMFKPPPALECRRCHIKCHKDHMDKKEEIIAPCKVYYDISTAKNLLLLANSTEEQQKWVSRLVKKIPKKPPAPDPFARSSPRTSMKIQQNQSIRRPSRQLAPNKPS

For Cc1c[nH]c2nccc(Oc3ccc(C[C@H](N)c4nc(CCCN(C)C)no4)cc3F)c12 [Example 6, (S)-3-(5-(1-amino-2-(3-fluoro-4-((3-methyl-1H-pyrrolo[2,3-b]pyridin-4-yl)oxy)phenyl)ethyl)-1,2,4-oxadiazol-3-yl)-N,N-dimethylpropan-1-amine], the Ki (ROCK1) was 5 to 50 nM and the Ki (ROCK2) was 5 to 50 nM.
With Cc1c[nH]c2nccc(Oc3ccc(C[C@H](N)c4nc(CCc5ccccc5)no4)cc3F)c12 [Example 4, (S)-2-(3-fluoro-4-((3-methyl-1H-pyrrolo[2,3-b]pyridin-4-yl)oxy)phenyl)-1-(3-phenethyl-1,2,4-oxadiazol-5-yl)ethanamine] the Ki (ROCK1) was < 5 nM and the Ki (ROCK2) was < 5 nM.
In the case of Cc1c[nH]c2nccc(Oc3ccc(C[C@H](N)c4nc(-c5ccccc5)no4)cc3F)c12 [Example 1, (S)-2-(3-fluoro-4((3-methyl-1H-pyrrolo[2,3-b]pyridin-4-yl)oxy)phenyl)-1-(3-phenyl-1,2,4-oxadiazol-5-yl)ethanamine], the Ki (ROCK1) is reported as 5 to 50 nM and the Ki (ROCK2) is reported as 5 to 50 nM.
COCCc1noc([C@@H](N)Cc2ccc(Oc3ccnc4[nH]cc(C)c34)c(F)c2)n1 [Example 2, (S)-2-(3-fluoro-4-((3-methyl-1H-pyrrolo[2,3-b]pyridin-4-yl)oxy)phenyl)-1-(3-(2-methoxyethyl)-1,2,4-oxadiazol-5-yl)ethanamine] gave a Ki (ROCK1) of 5 to 50 nM and a Ki (ROCK2) of 5 to 50 nM.
For Cc1c[nH]c2nccc(Oc3ccc(C[C@H](N)c4nnc(Cc5ccccc5)o4)cc3F)c12 [Example 9, (S)-1-(5-benzyl-1,3,4-oxadiazol-2-yl)-2-(3-fluoro-4-((3-methyl-1H-pyrrolo [2,3-b]pyridin-4-yl)oxy)phenyl)ethanamine], the Ki (ROCK1) was < 5 nM and the Ki (ROCK2) was < 5 nM.
In the case of Cc1noc([C@@H](N)Cc2ccc(Oc3ccnc4[nH]cc(C)c34)c(F)c2)n1 [Example 3, (S)-2-(3-fluoro-4-((3-methyl-1H-pyrrolo[2,3-b]pyridin-4-yl)oxy)phenyl)-1-(3-methyl-1,2,4-oxadiazol-5-yl)ethanamine], the Ki (ROCK1) is reported as 5 to 50 nM and the Ki (ROCK2) is reported as 5 to 50 nM.
Compound Cc1c[nH]c2nccc(Oc3ccc(C[C@H](N)c4nc(-c5cccnc5)no4)cc3F)c12 [Example 5, (S)-2-(3-fluoro-4-((3-methyl-1H-pyrrolo[2,3-b]pyridin-4-yl)oxy)phenyl)-1-(3-(pyridin-3-yl)-1,2,4-oxadiazol-5-yl)ethanamine] has a Ki (ROCK1) of 5 to 50 nM and a Ki (ROCK2) of 5 to 50 nM.
In the case of N[C@@H](Cc1ccc(Oc2ccnc3[nH]ccc23)cc1)c1nc(-c2ccccc2)no1 [Example 7, (S)-2-(4-((1H-pyrrolo[2,3-b]pyridin-4-yl)oxy)phenyl)-1-(3-phenyl-1,2,4-oxadiazol-5-yl)ethanamine], the Ki (ROCK1) is reported as > 50 nM and the Ki (ROCK2) is reported as > 50 nM.
Cc1c[nH]c2nccc(Oc3ccc(CC(CN)c4nc(CCc5ccccc5)no4)cc3F)c12 (stereo not drawn) [Example 8, 3-(3-fluoro-4-((3-methyl-1H-pyrrolo[2,3-b]pyridin-4-yl)oxy)phenyl)-2-(3-phenethyl-1,2,4-oxadiazol-5-yl)propan-1-amine] was tested, and the Ki (ROCK1) was < 5 nM and the Ki (ROCK2) was < 5 nM.
